“Also recorded” adds a separate entry of the source. Ends that are not written are not given here.
How the values were obtained:
Tyr = assay: Western blot, TYR protein; format: cell-based, mouse; conditions: B16F10, 48 h
Method: Western blot analysis was performed to measure TYR (TYR, TRP-1, TRP-2, and MITF) in B16F10 cells in line with the approach discussed by Yoon et al.[65]. whereby the B16F10 cells underwent treatment for 48 h using various peptide amounts ([…]) and also with arbutin (0.2 mM). Following this process, the cells were lysed using NP40 Cell Lysis Buffer with protease inhibitor cocktail supplementation. Next, 12% sodium dodecyl sulfate poly-acrylamide (SDS-PAGE) gel electrophoresis was used to extract equal quantities of protein from each sample, with subsequent transfer to PVD (polyvinylidene fluoride) membranes (Millipore, Bedford, MA, USA). The membrane was blocked overnight with 3% skimmed milk (w/v) in TBST with 0.5% Tween 20 at 4 °C and then washed thrice in TBST. The rabbit polyclonal anti-TYR antibody (dilution 1:1000), anti-TRP-1 antibody (dilution 1:1000), anti-TRP-2 antibody and anti-MITF antibody (dilution 1:1000) obtained from Abcam (USA), were used respectively to detect the TYR, TRP-1, TRP-2, and MITF bands. After thrice washing again in TBST, secondary antibodies (dilution 1:5000) were added to the membranes for 1 h of incubation at room temperature before another triplicate washing in TBST. […] The software facilitated the identification and quantification of protein expression levels.

zebrafish embryos = assay: Melanin inhibitory assay in zebrafish embryos; format: in vivo; conditions: 48 h after fertilization, vs control
Method: To perform the test of acute toxicity, a total of 20 fertilized zebrafish embryos were collected at around 4 h after fertilization and added to each well in a 12-well plate. These embryos then underwent treatment using different quantities of […] (2, 4, 6, 8, and 10 µM), while the negative control was distilled water and the positive control was 3,4-dichloroaniline. Incubation of the plate then took place until 48 h after fertilization at a temperature of 28.5 ± 1 °C. The test solutions were refreshed at 24 h after fertilization to allow the counting and removal of any dead embryos. Following exposure, a stereomicroscope (SZX16, Olympus, Japan) was used to record the embryo morphological effects. Meanwhile, a slightly modified version of a previously described melanin inhibitory assay was carried out[30]. The embryos were then homogenized using a cold lysis buffer (PBS pH 7.4, 1% Triton-X and 1% DMSF). The lysate then underwent 10 min of sonication before being placed in a centrifuge for 5 min at 10,000×g. The pellet was then removed from the centrifuge and dissolved in 200 µL of 1 N NaOH for 1 h at a temperature of 85 °C. This sample was subsequently vortexed and placed in the centrifuge for a further 5 min at 10,000×g. A microplate reader (Spectramax M5, Molecular Devices, USA) was then employed to determine the supernatant absorbance at 490 nm. Melanin content levels could then by calibrated by using the protein amount, and were reported in the form of a percentage compared to the untreated control. In the melanin inhibitory assay, the positive control used was phenylthiourea (PTU) solution (0.0015%).

Mitf [1] = assay: qRT-PCR, Mitf mRNA; format: cell-based, mouse; conditions: B16F10, 48 h
Method: A 6-well plate was used to seed B16F10 cells at 1 × 10^5 cells per well prior to overnight incubation in a 5% CO2 humid atmosphere at 37°C. […] Harvesting was conducted via removal of the supernatant, and the cells were rinsed twice in PBS (phosphate-buffered saline). The PureLink™RNA Mini Kit (Invitrogen™, USA) was then used to extract total RNA in line with the guidance of the manufacturer. RNA concentration was assessed at 260 nm with a NanoDrop 2000 UV-Vis spectrophotometer (Thermo Fisher Scientific, Inc.). Oligo-dT primers and a Precision nanoScript II Reverse Transcription Kit (PrimerDesign, Camberley, UK) were used to perform the reverse transcription of 1 µg of total RNA to cDNA in line with the guidance of the manufacturer. MyGo Pro®Real time PCR apparatus (IT-IS International Ltd., Stokesley, UK) was then used to perform the qRT-PCR assays in which 20 µL of PCR reaction contained 1 µL of cDNA, 7 µL of ultrapure water, 1 µL of each primer […], and 10 µL of 2×qPCRBIO SyGreen Mix (PCR Biosystems Ltd, London, UK). This research made use of the following PCR primers: Gapdh forward 5’-[…]-3’, Gapdh reverse 5’-[…]-3’, Tyr forward 5’-[…]-3’, Tyr reverse 5’-[…]-3’, Trp-1 forward 5’-[…]-3’, Trp-1 reverse 5’-[…]-3’, Trp-2 forward 5’-[…]-3’, Trp-2 reverse 5’-[…]-3’, Mitf forward 5’-[…] − 3’, Mitf reverse 5’-[…]-3’. The initial stage of the process of qRT-PCR amplification was the activation step of thermal treatment where a temperature of 95 °C was used for 2 min, with 45 subsequent cycles comprising 10 s at 95 °C, 20 s at 60 °C, and 30 s at 72 °C, before embarking upon the final melting curve from 60 to 97 °C with 1 min for each step. The relative gene expression level could then be calculated via the cycle threshold (Ct) value, while the role of endogenous control for data normalization was occupied by Gapdh (the housekeeping gene). To calculate relative gene expression, the formula given below can be employed:2 [drawing 2]
where the heightened threshold cycle for the target gene is given as ΔΔCt.

Mitf [2] = assay: Western blot, MITF protein; format: cell-based, mouse
Method: Following this process, the cells were lysed using NP40 Cell Lysis Buffer with protease inhibitor cocktail supplementation. Next, 12% sodium dodecyl sulfate poly-acrylamide (SDS-PAGE) gel electrophoresis was used to extract equal quantities of protein from each sample, with subsequent transfer to PVD (polyvinylidene fluoride) membranes (Millipore, Bedford, MA, USA). The membrane was blocked overnight with 3% skimmed milk (w/v) in TBST with 0.5% Tween 20 at 4 °C and then washed thrice in TBST. The rabbit polyclonal anti-TYR antibody (dilution 1:1000), anti-TRP-1 antibody (dilution 1:1000), anti-TRP-2 antibody and anti-MITF antibody (dilution 1:1000) obtained from Abcam (USA), were used respectively to detect the TYR, TRP-1, TRP-2, and MITF bands. After thrice washing again in TBST, secondary antibodies (dilution 1:5000) were added to the membranes for 1 h of incubation at room temperature before another triplicate washing in TBST. Enhanced chemiluminescence horseradish peroxidase (HRP) substrates (GeneDirex, Taiwan) were then used in line with the guidance of the manufacturer to detect bound antibodies, while β-actin antibody was employed to evaluate the loading control. Gel band detection was performed using ImageJ software (version 1.54), available at https://imagej.net/ij/. The software facilitated the identification and quantification of protein expression levels.

## VDGYPAAGY [VY-9, Val-Asp-Gly-Tyr-Pro-Ala- Ala-Gly-Tyr]
Tyr; 1.6 µM
  TYR protein expression vs control: the expression of all proteins decreased compared to the control
Tyr; western blot
  concentration from which TYR protein expression decreased: 0.4 µM
Zebrafish embryos; 4 µM
  melanin content: anti-melanogenic effects were observed; also recorded: the lowest among all treatment groups, it did not achieve statistical significance
Zebrafish embryos; any concentration (2–10 µM)
  melanin content: no significant reduction in melanin levels at any concentration
Mitf [1]; 1.6 µM
  Mitf mRNA expression vs control: significantly reduced the expression levels of all measured genes
Mitf [1]; vs control
  concentration from which Mitf mRNA expression decreased: 0.2 µM
Mitf [1]; VY-9 1.6 µM vs arbutin 0.2 mM
  Mitf mRNA expression vs arbutin: significantly decreased compared to arbutin
Mitf [2]; 1.6 µM, B16F10, 48 h
  MITF protein expression vs control: the expression of all proteins decreased compared to the control
Mitf [2]; B16F10, 48 h, western blot
  concentration from which MITF protein expression decreased: 0.4 µM
Mitf [2]; VY-9 1.6 µM vs arbutin 0.2 mM, 48 h
  MITF protein expression vs arbutin: only MITF showed a lower expression level

— paper PMC11681159, “Bee pollen peptides as potent tyrosinase inhibitors with anti-melanogenesis effects in murine b16f10 melanoma cells and zebrafish embryos” (Scientific Reports, 2024)
